# According to patent US20230150974A1 (Foghorn Therapeutics Inc., priority 2020, published 2023):
# Counter-ions that a name gives are not always drawn.
# Key:
# HiBiT-BRM = target: T1, HiBiT-BRM (Homo sapiens, UniProt P51531); experiment: HiBiT-BRM cell-based degradation assay (Nano-Glo HiBiT Lytic Detection); details: HeLa cells expressing HiBiT-BRM, 24 h; for DC50: read-out: BRM HiBit Degradation IC50
# T1 construct: expressed in transfected cells
# In short: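 Luminescence from HiBiT–LgBiT complementation in lysates of a stable HiBiT-BRM HeLa line measured after 24 h compound exposure. Degradation expressed as percent relative to DMSO-treated cells and cells given 2 μM of a known BRM/BRG1 degrader.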
# HiBit-BRG1 = target: T2, HiBit-BRG1 (Homo sapiens, UniProt P51532); experiment: HiBit-BRG1 cell-based degradation assay (Nano-Glo HiBiT Lytic Detection); details: HeLa cells expressing HiBit-BRG1 and LgBit, 24 h; for DC50: read-out: BRG1 HiBit Degradation IC50; for Dmax: read-out: BRG1 HiBit Degradation Maximum (%)
# T2 construct: expressed in transfected cells
# T2 sequence (P51532 whole entry): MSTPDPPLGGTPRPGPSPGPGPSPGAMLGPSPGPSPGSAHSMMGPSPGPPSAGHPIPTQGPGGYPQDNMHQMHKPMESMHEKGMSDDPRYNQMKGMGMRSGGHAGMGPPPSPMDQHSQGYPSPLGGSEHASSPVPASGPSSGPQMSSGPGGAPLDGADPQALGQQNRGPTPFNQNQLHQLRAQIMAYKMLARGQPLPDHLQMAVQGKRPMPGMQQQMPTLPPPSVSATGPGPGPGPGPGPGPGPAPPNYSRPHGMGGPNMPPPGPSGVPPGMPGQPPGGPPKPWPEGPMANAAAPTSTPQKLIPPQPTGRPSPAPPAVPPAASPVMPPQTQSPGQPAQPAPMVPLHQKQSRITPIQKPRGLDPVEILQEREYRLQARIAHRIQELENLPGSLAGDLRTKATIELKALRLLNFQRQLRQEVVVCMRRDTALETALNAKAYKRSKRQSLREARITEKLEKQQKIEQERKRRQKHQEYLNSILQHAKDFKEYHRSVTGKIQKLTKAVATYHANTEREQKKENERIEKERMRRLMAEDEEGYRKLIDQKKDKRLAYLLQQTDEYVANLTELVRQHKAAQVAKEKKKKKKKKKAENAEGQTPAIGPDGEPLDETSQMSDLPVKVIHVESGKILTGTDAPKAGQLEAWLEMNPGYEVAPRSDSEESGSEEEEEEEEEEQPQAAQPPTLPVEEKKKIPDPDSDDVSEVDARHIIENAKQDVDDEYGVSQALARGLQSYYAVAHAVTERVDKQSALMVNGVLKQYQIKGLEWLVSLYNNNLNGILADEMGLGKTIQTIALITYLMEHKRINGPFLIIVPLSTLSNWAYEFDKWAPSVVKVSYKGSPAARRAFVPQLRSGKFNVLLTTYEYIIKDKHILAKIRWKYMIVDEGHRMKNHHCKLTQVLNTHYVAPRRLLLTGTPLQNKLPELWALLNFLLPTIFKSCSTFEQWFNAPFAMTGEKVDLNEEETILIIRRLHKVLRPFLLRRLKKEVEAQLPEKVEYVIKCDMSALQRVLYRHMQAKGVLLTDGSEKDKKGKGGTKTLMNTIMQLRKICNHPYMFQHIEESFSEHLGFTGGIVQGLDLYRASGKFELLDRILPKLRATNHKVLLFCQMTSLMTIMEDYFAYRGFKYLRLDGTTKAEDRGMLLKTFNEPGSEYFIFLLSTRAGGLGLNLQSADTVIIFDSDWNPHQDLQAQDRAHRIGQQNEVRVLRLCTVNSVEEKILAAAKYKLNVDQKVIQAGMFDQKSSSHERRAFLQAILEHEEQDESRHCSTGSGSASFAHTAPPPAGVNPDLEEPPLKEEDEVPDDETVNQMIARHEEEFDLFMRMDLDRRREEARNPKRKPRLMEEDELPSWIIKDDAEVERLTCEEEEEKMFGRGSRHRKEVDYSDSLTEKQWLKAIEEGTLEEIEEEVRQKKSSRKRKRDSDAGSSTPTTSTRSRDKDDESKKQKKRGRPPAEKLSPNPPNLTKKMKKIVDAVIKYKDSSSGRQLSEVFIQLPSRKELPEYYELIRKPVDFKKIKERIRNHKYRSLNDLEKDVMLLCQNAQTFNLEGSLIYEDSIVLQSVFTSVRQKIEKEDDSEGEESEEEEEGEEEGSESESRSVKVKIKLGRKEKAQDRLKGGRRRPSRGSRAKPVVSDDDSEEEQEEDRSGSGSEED
# In short: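 Stable HeLa line co-expressing HiBit-BRG1 and LgBit, 5000 cells/well, treated 24 h in a tissue culture incubator. Lysed with Nano-Glo HiBiT lytic reagent, luminescence read. % degradation normalized to DMSO (high control) and 2 μM reference BRM/BRG1 degrader (low control).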
# T1 sequence (P51531 whole entry): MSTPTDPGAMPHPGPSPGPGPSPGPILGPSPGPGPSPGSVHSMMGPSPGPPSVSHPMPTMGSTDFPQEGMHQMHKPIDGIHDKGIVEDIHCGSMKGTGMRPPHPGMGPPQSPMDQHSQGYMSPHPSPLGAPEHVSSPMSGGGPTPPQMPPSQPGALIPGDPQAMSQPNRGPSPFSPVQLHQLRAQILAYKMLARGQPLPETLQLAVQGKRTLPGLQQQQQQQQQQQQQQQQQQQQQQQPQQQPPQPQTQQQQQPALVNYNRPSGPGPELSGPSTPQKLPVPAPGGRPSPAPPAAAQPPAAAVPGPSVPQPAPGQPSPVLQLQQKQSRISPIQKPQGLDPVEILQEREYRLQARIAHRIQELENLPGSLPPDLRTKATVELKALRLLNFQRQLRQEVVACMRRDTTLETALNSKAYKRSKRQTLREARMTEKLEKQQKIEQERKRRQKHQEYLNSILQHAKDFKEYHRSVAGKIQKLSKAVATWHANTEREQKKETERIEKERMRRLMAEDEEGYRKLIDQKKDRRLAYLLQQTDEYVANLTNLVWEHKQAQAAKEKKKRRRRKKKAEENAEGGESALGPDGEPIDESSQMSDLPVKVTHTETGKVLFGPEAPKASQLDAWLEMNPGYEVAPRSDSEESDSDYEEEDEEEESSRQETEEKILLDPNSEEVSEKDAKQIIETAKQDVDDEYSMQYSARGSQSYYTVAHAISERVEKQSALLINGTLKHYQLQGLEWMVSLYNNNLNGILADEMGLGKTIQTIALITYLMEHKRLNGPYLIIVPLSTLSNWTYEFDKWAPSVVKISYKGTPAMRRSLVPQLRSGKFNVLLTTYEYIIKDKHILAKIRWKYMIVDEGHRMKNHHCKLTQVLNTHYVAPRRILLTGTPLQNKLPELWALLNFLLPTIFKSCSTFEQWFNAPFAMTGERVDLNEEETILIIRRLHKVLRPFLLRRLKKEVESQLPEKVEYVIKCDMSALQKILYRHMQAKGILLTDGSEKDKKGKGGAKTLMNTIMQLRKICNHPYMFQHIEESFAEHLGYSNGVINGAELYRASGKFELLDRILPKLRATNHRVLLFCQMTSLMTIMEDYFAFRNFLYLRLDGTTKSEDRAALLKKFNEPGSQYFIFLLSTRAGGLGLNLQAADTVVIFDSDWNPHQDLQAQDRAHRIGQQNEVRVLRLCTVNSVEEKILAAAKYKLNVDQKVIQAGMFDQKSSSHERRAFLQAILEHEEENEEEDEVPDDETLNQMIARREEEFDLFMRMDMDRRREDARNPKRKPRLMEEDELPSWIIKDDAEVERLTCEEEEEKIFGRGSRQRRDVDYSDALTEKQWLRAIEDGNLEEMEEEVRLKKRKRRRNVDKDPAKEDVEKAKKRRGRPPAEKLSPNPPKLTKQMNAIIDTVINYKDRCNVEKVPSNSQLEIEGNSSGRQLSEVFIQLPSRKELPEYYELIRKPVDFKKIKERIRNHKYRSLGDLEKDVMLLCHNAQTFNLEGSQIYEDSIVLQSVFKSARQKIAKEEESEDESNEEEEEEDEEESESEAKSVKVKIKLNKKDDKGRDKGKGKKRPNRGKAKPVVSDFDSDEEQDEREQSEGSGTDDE
SMILES,DC50 (HiBiT-BRM) [µM],DC50 (HiBit-BRG1) [µM],Dmax (HiBit-BRG1) [%],BRM HiBit Degradation Maximum (%) (HiBiT-BRM)
"Cc1ncsc1-c1ccc(CNC(=O)[C@@H]2C[C@H](O)CN2C(=O)[C@@H](NC(=O)CCCCCCCCCNC(=O)c2ccc(CCOc3cc(-c4ccccc4O)nnc3N)cc2)C(C)(C)C)cc1 [Compound 105, (2S,4S)-1-((S)-2-(10-(4-(2-((3-amino-6-(2-hydroxyphenyl)pyridazin-4-yl)oxy)ethyl)benzamido)decanamido)-3,3-dimethylbutanoyl)-4-hydroxy-N-(4-(4-methylthiazol-5-yl)benzyl)pyrrolidine-2-carboxamide]",> 1,> 1,< 50,C (“C” indicates maximum degradation <50%)
"Nc1nnc(-c2ccccc2O)cc1OCCc1ccc(CNCCNc2cccc3c2C(=O)N(C2CCC(=O)NC2=O)C3=O)cc1 (stereo not drawn) [Compound 109, 4-[[2-([[4-(2-[[3-amino-6-(2-hydroxyphenyl)pyridazin-4-yl]oxy]ethyl)phenyl]methyl]amino)ethyl]amino]-2-(2,6-dioxopiperidin-3-yl)isoindole-1,3-dione, formic acid salt]",> 1,> 1,< 50,C (“C” indicates maximum degradation <50%)
"Nc1nnc(-c2ccccc2O)cc1OCCc1ccc(CNCCN2CCN(c3cccc4c3C(=O)N(C3CCC(=O)NC3=O)C4=O)CC2)cc1 (stereo not drawn) [Compound 110, 4-[4-[2-([[4-(2-[[3-amino-6-(2-hydroxyphenyl)pyridazin-4-yl]oxy]ethyl)phenyl]methyl]amino)ethyl]piperazin-1-yl]-2-(2,6-dioxopiperidin-3-yl)isoindole-1,3-dione]",> 0.01,> 0.1,> 50,A (“A” indicates maximum degradation ≥75%)
"Nc1nnc(-c2ccccc2O)cc1OCCc1ccc(CNC(=O)CCNc2cccc3nnn(C4CCC(=O)NC4=O)c(=O)c23)cc1 (stereo not drawn) [Compound 111, N-(4-(2-((3-amino-6-(2-hydroxyphenyl)pyridazin-4-yl)oxy)ethyl)benzyl)-3-((3-(2,6-dioxopiperidin-3-yl)-4-oxo-3,4-dihydrobenzo[d][1,2,3]triazin-5-yl)amino)propanamide]",> 1,> 1,< 50,C (“C” indicates maximum degradation <50%)
"Nc1nnc(-c2ccccc2O)cc1OCCc1ccc(CNCCCCCNc2cccc3c2C(=O)N(C2CCC(=O)NC2=O)C3=O)cc1 (stereo not drawn) [Compound 112, 4-[[5-([[4-(2-[[3-amino-6-(2-hydroxyphenyl)pyridazin-4-yl]oxy]ethyl)phenyl]methyl]amino)pentyl]amino]-2-(2,6-dioxopiperidin-3-yl)isoindole-1,3-dione]",> 0.01,> 1,> 50,B (“B” indicates maximum degradation ≥50%)
"Nc1nnc(-c2ccccc2O)cc1OCCc1ccc(CNCCOc2cccc3c2C(=O)N(C2CCC(=O)NC2=O)C3=O)cc1 (stereo not drawn) [Compound 115, 4-[2-([[4-(2-[[3-amino-6-(2-hydroxyphenyl)pyridazin-4-yl]oxy]ethyl)phenyl]methyl]amino)ethoxy]-2-(2,6-dioxopiperidin-3-yl)isoindole-1,3-dione]",> 1,> 1,< 50,C (“C” indicates maximum degradation <50%)
"Nc1nnc(-c2cc(F)ccc2O)cc1OCCc1ccc(CNCCCCCOc2cccc3c2C(=O)N(C2CCC(=O)NC2=O)C3=O)cc1 (stereo not drawn) [Compound 118, 4-[[5-([[4-(2-[[3-amino-6-(5-fluoro-2-hydroxyphenyl)pyridazin-4-yl]oxy]ethyl)phenyl]methyl]amino)pentyl]oxy]-2-(2,6-dioxopiperidin-3-yl)isoindole-1,3-dione;formic acid salt]",> 0.1,> 1,< 50,B (“B” indicates maximum degradation ≥50%)
"Nc1nnc(-c2ccccc2O)cc1OCCc1ccc(CNCCCCCNc2cccc3nnn(C4CCC(=O)NC4=O)c(=O)c23)cc1 (stereo not drawn) [Compound 120, 3-(5-[[5-([[4-(2-[[3-amino-6-(2-hydroxyphenyl)pyridazin-4-yl]oxy]ethyl)phenyl]methyl]amino)pentyl]amino]-4-oxo-1,2,3-benzotriazin-3-yl)piperidine-2,6-dione]",> 0.1,> 1,> 50,B (“B” indicates maximum degradation ≥50%)
"Nc1nnc(-c2ccccc2O)cc1OCCc1ccc(CNCCCCOc2cccc3c2C(=O)N(C2CCC(=O)NC2=O)C3=O)cc1 (stereo not drawn) [Compound 121, 4-(4-((4-(2-((3-amino-6-(2-hydroxyphenyl)pyridazin-4-yl)oxy)ethyl)benzyl)amino)butoxy)-2-(2,6-dioxopiperidin-3-yl)isoindoline-1,3-dione]",> 1,> 1,< 50,C (“C” indicates maximum degradation <50%)

# Now from value to compound, other results behind:
DC50 (HiBiT-BRM) [µM],DC50 (HiBit-BRG1) [µM],Dmax (HiBit-BRG1) [%],SMILES,BRM HiBit Degradation Maximum (%) (HiBiT-BRM)
> 1,> 1,< 50,"Nc1nnc(-c2ccccc2O)cc1OCCc1ccc(CNC(=O)CCCNc2cccc3nnn(C4CCC(=O)NC4=O)c(=O)c23)cc1 (stereo not drawn) [Compound 106, N-(4-(2-((3-amino-6-(2-hydroxyphenyl)pyridazin-4-yl)oxy)ethyl)benzyl)-4-((3-(2,6-dioxopiperidin-3-yl)-4-oxo-3,4-dihydrobenzo[d][1,2,3]triazin-5-yl)amino)butanamide]",C (“C” indicates maximum degradation <50%)
> 1,> 1,> 50,"Nc1nnc(-c2ccccc2O)cc1OCCc1ccc(CNCCCCNc2cccc3c2C(=O)N(C2CCC(=O)NC2=O)C3=O)cc1 (stereo not drawn) [Compound 107, 4-[[4-([[4-(2-[[3-amino-6-(2-hydroxyphenyl)pyridazin-4-yl]oxy]ethyl)phenyl]methyl]amino)butyl]amino]-2-(2,6-dioxopiperidin-3-yl)isoindole-1,3-dione]",C (“C” indicates maximum degradation <50%)
> 0.01,> 1,> 50,"Nc1nnc(-c2ccccc2O)cc1OCCc1ccc(CNCCCNc2cccc3c2C(=O)N(C2CCC(=O)NC2=O)C3=O)cc1 (stereo not drawn) [Compound 108, 4-[[3-([[4-(2-[[3-amino-6-(2-hydroxyphenyl)pyridazin-4-yl]oxy]ethyl)phenyl]methyl]amino)propyl]amino]-2-(2,6-dioxopiperidin-3-yl)isoindole-1,3-dione, formic acid salt]",B (“B” indicates maximum degradation ≥50%)
> 0.01,> 1,< 50,"CN(CCCCCOc1cccc2c1C(=O)N(C1CCC(=O)NC1=O)C2=O)Cc1ccc(CCOc2cc(-c3ccccc3O)nnc2N)cc1 (stereo not drawn) [Compound 113, 4-((5-((4-(2-((3-amino-6-(2-hydroxyphenyl)pyridazin-4-yl)oxy)ethyl)benzyl)(methyl)amino)pentyl)oxy)-2-(2,6-dioxopiperidin-3-yl)isoindoline-1,3-dione]",A (“A” indicates maximum degradation ≥75%)
> 0.01,> 1,> 50,"Nc1nnc(-c2ccccc2O)cc1OCCc1ccc(CNCCCC2CN(c3cccc4c3C(=O)N(C3CCC(=O)NC3=O)C4=O)C2)cc1 (stereo not drawn) [Compound 114, 4-(3-(3-((4-(2-((3-amino-6-(2-hydroxyphenyl)pyridazin-4-yl)oxy)ethyl)benzyl)amino)propyl)azetidin-1-yl)-2-(2,6-dioxopiperidin-3-yl)isoindoline-1,3-dione]",B (“B” indicates maximum degradation ≥50%)
> 1,> 1,< 50,"Nc1nnc(-c2ccccc2O)cc1OCCc1ccc(CNCCCCCOc2ccc3c(c2)C(=O)N(C2CCC(=O)NC2=O)C3=O)cc1 (stereo not drawn) [Compound 116, 5-((5-((4-(2-((3-amino-6-(2-hydroxyphenyl)pyridazin-4-yl)oxy)ethyl)benzyl)amino)pentyl)oxy)-2-(2,6-dioxopiperidin-3-yl)isoindoline-1,3-dione; diformic acid]",C (“C” indicates maximum degradation <50%)
> 1,> 1,> 75,"Nc1nnc(-c2ccccc2O)cc1OCCc1ccc(CNCCCCCNc2ccc3c(c2)C(=O)N(C2CCC(=O)NC2=O)C3=O)cc1 (stereo not drawn) [Compound 117, 5-[[5-([[4-(2-[[3-amino-6-(2-hydroxyphenyl)pyridazin-4-yl]oxy]ethyl)phenyl]methyl]amino)pentyl]amino]-2-(2,6-dioxopiperidin-3-yl)isoindole-1,3-dione]",B (“B” indicates maximum degradation ≥50%)
> 1,> 1,> 50,"Nc1nnc(-c2cc(F)cc(Cl)c2O)cc1OCCc1ccc(CNCCCCCOc2cccc3c2C(=O)N(C2CCC(=O)NC2=O)C3=O)cc1 (stereo not drawn) [Compound 119, 4-((5-((4-(2-((3-amino-6-(3-chloro-5-fluoro-2-hydroxyphenyl)pyridazin-4-yl)oxy)ethyl)benzyl)amino)pentyl)oxy)-2-(2,6-dioxopiperidin-3-yl)isoindoline-1,3-dione; formic acid salt]",C (“C” indicates maximum degradation <50%)
> 0.1,> 1,> 50,"Nc1nnc(-c2ccccc2O)cc1OCCc1ccc(CNCCCOc2cccc3c2C(=O)N(C2CCC(=O)NC2=O)C3=O)cc1 (stereo not drawn) [Compound 122, 4-[3-([[4-(2-[[3-amino-6-(2-hydroxyphenyl)pyridazin-4-yl]oxy]ethyl)phenyl]methyl]amino)propoxy]-2-(2,6-dioxopiperidin-3-yl)isoindole-1,3-dione]",B (“B” indicates maximum degradation ≥50%)
